Assay results from US7423017B2, “Method for treating cartilage disorders” (Genentech, Inc., priority 1997, dated 2008).
Positions of bridges follow the written chain, without caps; N, C: chain ends. Residues, ends and D or L forms follow the SMILES beside them.

Assays:
[1] = system: porcine articular cartilage explants; assay: porcine articular cartilage explants: matrix synthesis; type: cell-based, pig; details: 10 nM; for IL-1α-induced inhibition of proteoglycan synthesis: IL-1α 1 ng/ml
Experimental: (§1) The metacarpophalangeal joint of a six-month old pig was cultured as described above for bovine articular cartilage in Example 8. This explant was cultured in media alone or in media with D12K, D12R, or wild-type IGF-1 (at 10 nM) alone or in the presence of IL-1α at 1 ng/ml, as described above. Human explants were from patients undergoing joint replacement surgery. Articular cartilage was harvested, aliquoted (40-45 mg/tube) and cultured as above. […] Fresh media was added on days 0, 1, 2, and 3. Matrix breakdown was determined by measuring the amount of proteoglycans in the media using the DMMB assay as set forth above. Matrix (proteoglycan) synthesis was determined by measuring ^35S-sulfate uptake as set forth above.

[2] = system: human articular cartilage explants; assay: human articular cartilage explants from diseased joints: matrix synthesis (35S-sulfate uptake); type: cell-based; details: for matrix synthesis in diseased human articular cartilage: 40 ng/ml
Experimental: as §1
(§2) Human articular cartilage explants were cultured in media or treated with IGF-1 by itself or in combination with either BP3-40 or BP3-15 at 0.1 mg/ml as set forth above. Matrix breakdown was determined by measuring the release of proteoglycans into media as described above. Matrix synthesis was determined by counting the amount of ^35S-sulfate incorporated into the cartilage tissue as described above.
The same Material and Methods (for human tissue) were used as described above, using articular cartilage explants from human joints removed from patients undergoing joint replacement. These explants were cultured with IGF-1 alone at 40 ng/ml, or IGF-1 with BP1-17, BP3-15, or BP1-16 (0.1 mg/ml), or IGF-1 with buffer (HEPES).

IGFBP-3 [3] = target: T1, IGFBP-3 (Homo sapiens, UniProt P17936); assay: binding curves of phage displaying IGF-1 variants on immobilized IGFBP-1 or IGFBP-3
T1 construct: made in house
Excerpt: Phage particles displaying IGF-1 variants in which the aspartate residue at position 12 was mutated to lysine (D12K) or arginine (D12R) were constructed as described in Dubaquié and Lowman, supra. Furthermore, these protein variants were expressed in E. coli and purified as described in Dubaquié and Lowman, supra.
The wild-type IGF-1 phage particles bound to IGFBP-1 or IGFBP-3 generated similar detection signal intensities.

[4] = system: porcine articular cartilage explants; assay: porcine articular cartilage explants: matrix breakdown; type: cell-based, pig; details: 10 nM; for IL-1α-induced matrix breakdown: IL-1α 1 ng/ml
Experimental: as §1

IGFBP-1 [5] = target: T2, IGFBP-1 (Homo sapiens, UniProt P08833); assay: BIACORE kinetics: IGFBP-1 binding to immobilized IGF-1 variants; design: made in house; host or cells: CHO cells; details: 25 C
T2 sequence (P08833 26-259): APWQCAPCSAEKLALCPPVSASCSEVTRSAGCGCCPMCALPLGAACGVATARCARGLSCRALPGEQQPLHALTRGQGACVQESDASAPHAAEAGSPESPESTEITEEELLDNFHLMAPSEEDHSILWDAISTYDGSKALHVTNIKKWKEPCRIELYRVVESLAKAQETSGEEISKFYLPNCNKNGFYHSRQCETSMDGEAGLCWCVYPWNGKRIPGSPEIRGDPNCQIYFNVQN

IGFBP-1 [6] = target: T2, IGFBP-1; assay: competitive phage ELISA of IGF-1 mutants, IGFBP-1; type: binding; design: made in house; host or cells: CHO cells; details: phage display, soluble IGFBP-1 competitor
Outline: (§3)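 Alanine-scan IGF-1 mutants on phage competed with soluble IGFBP-1 or IGFBP-3 (threefold dilutions over six logs, from 5 μM and 500 nM respectively) for binding to plates coated with 1 μg/ml of the same protein in PBS pH 7.2. Incubation was 1 h at room temperature in 0.5% Tween 20/PBS. Bound phage was detected by anti-phage/HRP ELISA; IC50 is the mean±SD of at least two clones.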

IGFBP-3 [7] = target: T1, IGFBP-3; assay: competitive phage ELISA of IGF-1 mutants, IGFBP-3; type: binding; details: phage display, soluble IGFBP-3 competitor
Outline: as §3

type I IGF receptor = target: T3, type I IGF receptor (Homo sapiens, UniProt P08069); assay: KIRA assay of IGF type I receptor activation; type: cell-based; details: about 13 nM or […] variant
T3 construct: monitors the extent of cytoplasmic IGF receptor phosphorylation upon extracellular stimulation by ligand; endogenous in cells; MCF-7 by my knowledge of the cited method
Excerpt: The Kinase Receptor Activation Assay (KIRA) specifically and quantitatively monitors the extent of cytoplasmic IGF receptor phosphorylation upon extracellular stimulation by ligand (Sadick et al., J. Pharm. Biomed. Analysis, 19 (6): 883-891 (1999)).

IGFBP-1 [8] = assay: BIACORE kinetics: IGFBP-1 binding to immobilized IGF-1 variants; design: species or system human; details: from relative KD values
Experimental: (§4) The binding affinities of the IGF variants for IGFBP-1 and IGFBP-3 were determined using a BIACORE™-2000 real time kinetic interaction analysis system (Biacore, Inc., Piscataway, N.J.) to measure association (ka) and dissociation (kd) rates. Carboxymethylated dextran biosensor chips (CM5, BIAcore Inc.) were activated with EDC (N-ethyl-N′-(3-dimethylaminopropyl)-carbodiimide hydrochloride) and NHS(N-hydroxysuccinimide) according to the supplier's instructions. For immobilization, IGF mutants in 20 mM sodium acetate, pH 4.8, were injected onto the biosensor chip at a concentration of 50 μg/ml to yield approximately 450-600 RU's (resonance-responce units) of covalently-coupled protein. Unreacted groups were blocked with an injection of 1 M ethanolamine. Kinetic measurements were carried out by injecting two-fold serial dilutions (starting at 1 μM) of either IGFBP-1 or IGFBP-3 in running buffer (PBS, 0.05% TWEEN 20™, 0.1% ovalbumin, 0.1% sodium azide) at 25 °C using a flow rate of 20 μl/min. Association rates (ka) and dissociation rates (kd) were calculated separately using a 1:1 Langmuir™ association model in the BIACORE™ evaluation software v. 3.0. The equilibrium dissociation constant (KD) was calculated as kd/ka.
For measurements of IGFBP-1 binding to IGF-1, kinetics experiments were conducted using a single-cysteine IGF-1 variant, Y31C, that was immobilized onto the sensor chip surface via a disulfide linkage (BIACORE™ System Manual Supplement, 5a-1, Pharmacia (1991)).

IGFBP-3 [9] = target: T1, IGFBP-3; assay: BIACORE kinetics: IGFBP-3 binding to immobilized IGF-1 variants; details: 25 C
Experimental: as §4

IGFBP-1 [10] = assay: competitive phage ELISA of IGF-1 mutants, IGFBP-1; type: binding, human; details: relative IC50 IGFBP-1/relative IC50 IGFBP-3
Outline: as §3

[11] = system: human articular cartilage explants; assay: human articular cartilage explants: matrix breakdown (proteoglycan release); type: cell-based; details: peptide 0.1 mg/ml
Experimental: as §1, §2

T1 sequence (P17936 28-291): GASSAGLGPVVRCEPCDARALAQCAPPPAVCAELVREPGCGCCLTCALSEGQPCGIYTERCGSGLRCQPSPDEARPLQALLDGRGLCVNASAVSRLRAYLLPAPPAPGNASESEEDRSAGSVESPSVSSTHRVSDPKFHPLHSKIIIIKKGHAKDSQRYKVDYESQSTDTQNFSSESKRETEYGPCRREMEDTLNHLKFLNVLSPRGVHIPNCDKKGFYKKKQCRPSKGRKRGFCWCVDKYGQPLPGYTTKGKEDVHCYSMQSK
T3 sequence (P08069 31-736 limits assumed): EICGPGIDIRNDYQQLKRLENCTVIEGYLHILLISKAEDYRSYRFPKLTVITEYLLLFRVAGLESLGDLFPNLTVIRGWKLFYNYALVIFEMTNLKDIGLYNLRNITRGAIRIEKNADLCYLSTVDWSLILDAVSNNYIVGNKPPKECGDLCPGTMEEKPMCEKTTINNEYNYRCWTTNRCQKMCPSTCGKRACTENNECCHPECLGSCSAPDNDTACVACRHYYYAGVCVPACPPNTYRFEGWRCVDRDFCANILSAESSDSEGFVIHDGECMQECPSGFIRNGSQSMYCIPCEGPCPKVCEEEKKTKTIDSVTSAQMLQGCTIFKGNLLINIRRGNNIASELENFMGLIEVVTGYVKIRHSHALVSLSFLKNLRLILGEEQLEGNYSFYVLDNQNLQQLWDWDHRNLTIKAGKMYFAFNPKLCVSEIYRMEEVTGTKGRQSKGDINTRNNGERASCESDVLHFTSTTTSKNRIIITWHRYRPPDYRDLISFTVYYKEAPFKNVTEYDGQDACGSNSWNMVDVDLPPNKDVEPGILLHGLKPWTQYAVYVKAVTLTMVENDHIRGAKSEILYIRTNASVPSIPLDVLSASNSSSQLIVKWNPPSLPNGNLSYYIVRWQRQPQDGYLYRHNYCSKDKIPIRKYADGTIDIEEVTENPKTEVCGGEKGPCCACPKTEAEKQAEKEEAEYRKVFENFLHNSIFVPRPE

| Compound | matrix synthesis [1] | IL-1α-induced inhibition of proteoglycan synthesis [1] | matrix synthesis in diseased human articular cartilage [2] | phage binding signal intensity, IGFBP-3 versus IGFBP-1 (IGFBP-3 [3]) | cartilage matrix breakdown [4] | IL-1α-induced matrix breakdown [4] | Binding to IGFBP-1 ka (IGFBP-1 [5]) | IC50 (IGFBP-1 [6]) [nM] | IC50 (IGFBP-3 [7]) [nM] | IGF type I receptor activation, single-concentration KIRA (type I IGF receptor) | Specificity Relative BP-1 / Relative BP-3 (IGFBP-1 [8]) | Binding to IGFBP-3 ka (IGFBP-3 [9]) | relative specificity (IGFBP-1 [10]) | matrix breakdown, IGF-1 in combination with peptide [11] | matrix synthesis, IGF-1 in combination with peptide ([2]; IGF-1 40 ng/ml, peptide 0.1 mg/ml) |
| --- | --- | --- | --- | --- | --- | --- | --- | --- | --- | --- | --- | --- | --- | --- | --- |
| D12R: IGF-1 variant, aspartate at position 12 mutated to arginine | increased matrix synthesis | prevented IL-1α-induced inhibition of proteoglycan synthesis | stimulated matrix synthesis in diseased human articular cartilage | displayed lower signal intensities when binding to IGFBP-3 compared to IGFBP-1 | inhibited cartilage matrix breakdown | inhibited the catabolic effects | – | – | – | – | – | – | – | – | – |
| F16A: IGF-1 single alanine mutant | – | – | – | – | – | – | 1.9 ± 0.6 ×10^4 M^−1s^−1 | 57.8 ± 20.1 | 1.32 ± 0.25 | retain biological activity | 3.6 | 1.1 ± 0.4 ×10^5 M^−1s^−1 | 4.0 | – | – |
| F25A: IGF-1 single alanine mutant | – | – | – | – | – | – | 1.5 ± 0.5 ×10^4 M^−1s^−1 | 181 ± 46 | 3.69 ± 0.25 | retain biological activity | 4.9 | 1.5 ± 0.5 ×10^5 M^−1s^−1 | – | – | – |
| CC(=O)N[C@@H](CO)C(=O)N[C@@H](CCC(=O)O)C(=O)N[C@@H](CCC(=O)O)C(=O)N[C@H](C(=O)N[C@H]1CSSC[C@@H](C(=O)N[C@@H](CC(N)=O)C(N)=O)NC(=O)[C@H](CC(C)C)NC(=O)[C@H](Cc2ccc(O)cc2)NC(=O)[C@H](Cc2c[nH]c3ccccc23)NC(=O)[C@H](CCC(=O)O)NC(=O)[C@H](C)NC(=O)[C@H](C(C)C)NC(=O)[C@@H]2CCCN2C(=O)[C@H](Cc2c[nH]c3ccccc23)NC1=O)C(C)C [BP3-40] (Ac-SEEVCWPVAEWYLCN-NH2; disulfide 5-14) | – | – | – | – | – | – | – | – | – | – | – | – | – | appeared to enhance the ability of IGF-1 to decrease matrix breakdown | to stimulate matrix synthesis |
| D12K: IGF-1 variant, aspartate at position 12 mutated to lysine | increased matrix synthesis | prevented IL-1α-induced inhibition of proteoglycan synthesis | stimulated matrix synthesis in diseased human articular cartilage | displayed lower signal intensities when binding to IGFBP-3 compared to IGFBP-1 | inhibited cartilage matrix breakdown | inhibited the catabolic effects | – | – | – | – | – | – | – | – | – |
